Measured values taken from patent US9296710B2, “Bicyclo (3.1.0) hexane-2, 6-dicarboxylic acid derivatives as mGlu2 receptor agonist” (Eli Lilly and Company, priority 2011, dated 2016).

Assays:
[1] = both, human, pH 7.4
Protocol: Liver S9 fractions are obtained from Xenotech LLC (Lenexa, Mo.). The lot is from a pool of two donors, one male and one female. The liver S9 fraction is prepared and diluted using a homogenization buffer consisting of 50 mM Tris, pH 7.4 at 4° C. and 150 mM potassium chloride without EDTA. Prodrug compounds are incubated in the liver homogenate for 2 hours at 37° C., after which the concentration of compound is determined by LC/MS/MS. Hydrolysis of Clopidogrel to Clopidogrel Carboxylic Acid is utilized as an assay positive control.
Incubations are conducted in 96-well format and all prodrug compounds are run in duplicate on each day. Stock prodrug compound solutions are prepared in water at a concentration of 1 mM. Human liver S9 fraction is diluted to a final protein concentration of 0.5 mg/mL in 100 mM PBS buffer, pH 7.4. […]
LC/MS/MS quantification of compound formed during the incubation is performed on a Sciex API 4000, Analyst version 1.4.2, TURBOIONSPRAY®, positive ionization, and Selected Reaction Monitoring (SRM). […]
Concentrations of hydrolyzed compound in the incubation mixtures are determined from standard curves prepared by replicate two-fold dilution starting at 10 μM in 100 mM PBS pH 7.4 and subsequently quenched with methanol-internal standard solution identical to the samples. Averages and standard deviations are calculated using MICROSOFT® Office EXCEL® 2007. […]

[2] = test system: stress-induced hyperthermia in rats; assay: Attenuation of Stress-Induced Hyperthermia in Rats; assay type: in vivo, rat; conditions: i.p.
From the text: In many anxiety disorders, hyperthermia occurs as part of the pathology and is considered a symptom of the disease. Compounds which attenuate stress-induced hyperthermia in animals are believed to be useful in treating anxiety disorders in humans. Generalized anxiety disorder is an example of such disorders that may be treated with such compounds. The conventional and minimally-invasive method for analyzing stress-induced hyperthermia is by measuring body temperature, and stress-induced increases in body temperature, via rectal thermometer. Male Fischer F-344 rats (Harlan, Indianapolis, Ind., USA) weighing between 275-350 g are tested. All animals are individually-housed with food and automated water available ad libitum, and maintained on a 12 h light/dark cycle (lights on at 06:00) Animals are fasted for approximately 12-18 hours before the experiment, which is conducted during the light phase. Rats are dosed one hour prior to the experiment by intraperitoneal (i.p.) route of administration in a dose volume of 1 mL/kg. The vehicle used was water with enough NaOH added to achieve a pH between 5-7. The mGluR5 antagonist MTEP (3-[(2-methyl-1,3-thiazol-4-yl)ethynyl]pyridine) and mGlu2/3 agonist LY317206 were used as quality controls, given that they produced reliable efficacy in this model Immediately following dosing, rats are returned to their home cage, and the experimenter turns off the lights and leaves the room. The dosing room is darkened for the remainder of the 1-hr pretreatment period.
After the pretreatment period, rats are taken individually to a brightly lit adjacent room where baseline body temperatures are determined by insertion of a rectal probe lubricated with mineral oil. Body temperature is assessed using a […] BAT-12® Microprobe Thermometer with a […] RET-2® rat rectal probe (Physitemp Instruments Inc., Clifton, N.J., USA). The probe is inserted approximately 2 cm into the rectum, to measure the core body temperature (this is the baseline body temperature, T1, in degrees Celsius). Ten minutes later a second body temperature measurement is recorded (T2). […]

[3] = test system: PCP-induced hyperlocomotor activity in rats; assay: Reversal of Phencyclidine (PCP)-Induced Hyperlocomotor Activity in Rats; assay type: in vivo; conditions: Rattus norvegicus
From the text: Administration of NMDA receptor antagonists, such as ketamine or phencyclidine (PCP), produces psychotomimetic-like effects in humans that are similar to those symptoms observed in patients with schizophrenia.
Motor activity is monitored by placing individual male, Sprague-Dawley (Harlan, Indianapolis, Ind.) rats in transparent, plastic shoe-box cages of the dimensions 45×25×20 cm, with 1 cm depth of wood chips as bedding, and a metal grill on top of the cage. Motor monitors (Kinder Scientific) consist of a rectangular rack of 12 photobeams arranged in an 8×4 formation, (or a high density grouping of 22 in a 15×7 pattern) at a height of 5 cm, with a second rack (for measuring rearing behaviors) at a height of 15 cm. The shoe box cage is placed inside of these racks, with the racks on a 3 foot high tabletop in an isolated room. […] On the test day, rats are placed in the test cage and allowed to acclimate for 30 minutes prior to PCP challenge; rats are monitored for an additional 60 minutes following PCP administration.
Data analysis and ED50 calculations are conducted using GraphPad PRISM® (San Diego, Calif. USA). Power analyses have determined that 8-10 rats per group are needed to have appropriate statistical power for detecting treatment differences (power=0.8). […]

human mGlu2 receptor = biological target: T1, human mGlu2 receptor (Homo sapiens, UniProt Q14416); assay: Human mGlu2 Agonist FLIPR Assay; assay type: cell-based
T1 construct: expressed in transfected cells; host or cells: AV-12 cells (Syrian hamster fibroblasts), co-transfected with rat EAAT1 and Galpha15
From the text: AV-12 cell lines, derived from Syrian Hamster fibroblasts and stably expressing the human mGlu2 receptor and co-transfected with the rat glutamate transporter EAAT 1 (Excitatory Amino Acid Transporter 1) and the Gα15 subunit, are used for these studies. The expression of Gα15 allows Gi-coupled receptors to signal through the phospholipase C pathway, resulting in the ability to measure receptor activation by a fluorometric calcium response assay. The cell lines are maintained by culturing in Dulbecco's Modified Eagle's Medium (DMEM) with high glucose and pyridoxine hydrochloride supplemented with 5% dialyzed fetal bovine serum, 1 mM sodium pyruvate, 10 mM HEPES [4-(2-hydroxyethyl)-1-piperazineethanesulfonic acid], 1 mM of L-glutamine, and 5 μg/mL blasticidin (all media are purchased from Invitrogen). Confluent cultures are passaged biweekly using an enzyme-free dissociation solution (Chemicon S-004-B).
Intracellular calcium levels are monitored before and after the addition of compounds using a Fluorometric Imaging Plate Reader (FLIPR®, Molecular Devices). The assay buffer is comprised of Hank's Buffered Salt Solution (HBSS; Sigma) supplemented with 20 mM HEPES. […] The dye solution is removed and replaced with fresh assay buffer (50 μL per well). […] Results are analyzed using PRISM® v4.03 (GraphPad Software). […] Exemplified compounds of the present invention are solubilized as 10 mM stocks in 0.1N NaOH and stored at −20 C. They are diluted through a three-fold dilution series into assay buffer. After taking an initial 5-sec fluorescent read on the FLIPR® instrument, a compound of the present invention is added to the cell plate (50 μL per well). Data are collected every second for the first 30 seconds and then every 3 seconds for a total of 90 seconds in order to detect agonist activity. The maximal response is defined as that induced by ECmax (100 μM glutamate). The compound effect is measured as maximal minus minimal peak heights in relative fluorescent units (RFUs) corrected for basal fluorescence measured in the absence of glutamate. Determinations are carried out using single plates. Agonist effects are quantified as percent stimulation induced by compound alone relative to the maximal glutamate response. All data are calculated as relative EC50 values using a four-parameter logistic curve fitting program (ACTIVITY BASE® v5.3.1.22).

T1 sequence (Q14416 19-872): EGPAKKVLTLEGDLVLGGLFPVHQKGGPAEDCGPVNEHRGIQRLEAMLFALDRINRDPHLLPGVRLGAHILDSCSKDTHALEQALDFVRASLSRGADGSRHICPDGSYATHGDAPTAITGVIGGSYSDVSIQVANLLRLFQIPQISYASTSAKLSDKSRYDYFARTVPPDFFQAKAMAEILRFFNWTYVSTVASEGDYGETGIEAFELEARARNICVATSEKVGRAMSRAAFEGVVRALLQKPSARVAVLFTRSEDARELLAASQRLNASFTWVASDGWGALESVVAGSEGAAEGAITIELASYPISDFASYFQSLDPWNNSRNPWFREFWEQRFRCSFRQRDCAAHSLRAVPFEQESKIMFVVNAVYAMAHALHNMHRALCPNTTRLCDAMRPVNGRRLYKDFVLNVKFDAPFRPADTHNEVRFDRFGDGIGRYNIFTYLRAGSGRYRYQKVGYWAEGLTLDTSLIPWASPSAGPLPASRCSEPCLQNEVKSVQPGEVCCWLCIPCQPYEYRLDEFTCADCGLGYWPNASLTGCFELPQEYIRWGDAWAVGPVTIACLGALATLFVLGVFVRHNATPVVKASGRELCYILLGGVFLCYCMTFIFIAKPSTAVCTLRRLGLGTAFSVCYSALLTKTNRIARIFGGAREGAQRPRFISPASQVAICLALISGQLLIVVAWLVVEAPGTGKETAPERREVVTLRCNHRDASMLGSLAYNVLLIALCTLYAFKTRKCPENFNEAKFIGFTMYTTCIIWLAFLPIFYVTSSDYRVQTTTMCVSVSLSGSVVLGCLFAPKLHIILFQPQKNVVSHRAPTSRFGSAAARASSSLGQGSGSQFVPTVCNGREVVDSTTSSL

Structure (SMILES): COC(=O)[C@H](c1ccccc1Cl)N1CCc2sccc2C1 [Clopidogrel]
- Hydrolysis of Clopidogrel to Clopidogrel Carboxylic Acid (positive control) [1]: 73.0%

Structure (SMILES): N[C@@]1(C(=O)O)C[C@H](Sc2nc[nH]n2)[C@H]2[C@H](C(=O)O)[C@H]21 [Example 10, (1R,2S,4S,5R,6R)-2-amino-4-(1H-1,2,4-triazol-3-ylsulfanyl)bicyclo[3.1.0]hexane-2,6-dicarboxylic acid]
- maximal reduction of stress-induced hyperthermia ([2]; at 10 mg/kg): 75%
- T35 (dose producing 35% reduction in stress-induced hyperthermic response) ([2]; one hour pretreatment): 1.7 mg/kg
- ED50 ([3]; i.p. administration, 30 minutes prior to 5 mg/kg PCP): 0.9 mg/kg
- EC50 (human mGlu2 receptor; hMGLUR2 FLIPR assay, AV-12 cells expressing human mGlu2, calcium response, read-out: Relative EC50): 69.1 nM
- Emax (human mGlu2 receptor; percent stimulation relative to maximal glutamate response (100 μM glutamate), read-out: Relative % Efficacy): 89%

Structure (SMILES): CSCC[C@H](N)C(=O)N[C@@]1(C(=O)O)C[C@H](Sc2nnc[nH]2)[C@H]2[C@H](C(=O)O)[C@H]21.Cl [Example 25, (1R,2S,4S,5R,6R)-2-(L-methionylamino)-4-(4H-1,2,4-triazol-3-ylsulfanyl) bicyclo[3.1.0] hexane-2,6-dicarboxylic acid hydrochloride]
- ED50 ([3]; oral administration (prodrug), overnight fasted, 4 hours prior to 5 mg/kg PCP): 6.4 mg/kg
